Our source for the inhibition and Activity values is ChEMBL document CHEMBL3132849, “Bioactive prenylated phenyl derivatives derived from marine natural products: novel scaffolds for the design of BACE inhibitors” (Medchemcomm, 2014).

Where “and” joins values, the source holds several entries; their conditions need not be identical. Identical values can stand only once. Starred links: 1 amine or outer side, 2 acyl side, 3 side chain; linkers in the order of their positions; H or OH if unused. Non-standard residues stand in square brackets, D forms with d. Residues, ends and D or L forms follow the SMILES beside them. LeuΨ(S-CHOHCH2)Ala = CC(C)C[C@H](N[*:1])[C@@H](O)C[C@@H](C)C(=O)[*:2]

For orientation: inhibition means the relative decrease from the control value, in per cent.

The target of data set [1] is Beta-secretase 1 (Homo sapiens) (UniProt P56817). The data set is described as follows: Inhibition of recombinant human BACE1 using fluorogenic peptide 4 as substrate at 10 uM by FRET assay.
Beta-secretase 1 (Homo sapiens), sequence (P56817 whole entry): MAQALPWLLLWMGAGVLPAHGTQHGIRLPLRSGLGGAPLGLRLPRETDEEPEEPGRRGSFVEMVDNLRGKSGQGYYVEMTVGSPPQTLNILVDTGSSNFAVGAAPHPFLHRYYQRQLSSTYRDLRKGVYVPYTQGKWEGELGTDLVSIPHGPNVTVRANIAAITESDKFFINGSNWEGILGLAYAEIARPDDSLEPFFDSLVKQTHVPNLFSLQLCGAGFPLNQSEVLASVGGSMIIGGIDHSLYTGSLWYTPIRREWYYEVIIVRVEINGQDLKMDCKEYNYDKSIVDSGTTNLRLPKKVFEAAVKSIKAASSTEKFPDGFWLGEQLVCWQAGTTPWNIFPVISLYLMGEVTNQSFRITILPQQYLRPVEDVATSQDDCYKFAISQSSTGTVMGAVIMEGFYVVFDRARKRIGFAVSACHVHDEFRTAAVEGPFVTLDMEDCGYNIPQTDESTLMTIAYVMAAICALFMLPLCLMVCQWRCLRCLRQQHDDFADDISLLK
Data set [2] has the same target. Description: Inhibition of BACE1 (unknown origin) expressed in human APP751 transfected CHO-7W cells assessed as inhibition of amyloid-beta (1 to 40) peptide production at 1 uM after 24 hrs by Abeta40 human ELISA Kit. Type of data set: cell-based.
Data set [3] shares this target. The data set is described as follows: Inhibition of recombinant human BACE1 using fluorogenic peptide 4 as substrate at 1 uM by FRET assay.
The target is the same in data set [4]. Description: Inhibition of BACE1 (unknown origin) expressed in human APP751 transfected CHO-7W cells assessed as inhibition of amyloid-beta (1 to 40) peptide production at 10 uM after 24 hrs by Abeta40 human ELISA Kit. Type of data set: cell-based. For orientation: ELISA stands for enzyme-linked immunosorbent assay.
The target is the same in data set [5]. The data set is described as follows: Inhibition of recombinant human BACE1 assessed as fluorescence at 10 uM using FRET ASSAY KIT.
Data set [6] has the same target. The data set is described as follows: Inhibition of recombinant human BACE1 assessed as fluorescence at 1 uM using FRET ASSAY KIT.
The subject of a further data set is CHO. The data set is described as follows: Cytotoxicity in Cricetulus griseus CHO cells expressing human APP751 at 10 uM. Type of data set: cell-based. The settings on record: chinese hamster.
Data set [7] has as its target Beta-secretase 1 (Homo sapiens) (UniProt P56817). The settings on record: CHO-7W, 3 uM.
Description: Inhibition of BACE1 in human APP751 transfected CHO-7W cells assessed as inhibition of amyloid-beta (1 to 40) peptide production at 3 uM after 24 hrs by Abeta40 human ELISA Kit
Data set [8] in a line: Cytotoxicity in human SH-SY5Y cells at 1 to 10 uM. The data set is classed as cell-based.

As for `CCOC(=O)COc1ccc(C(=O)OC)cc1N(C/C=C(\C)CC/C=C(\C)CCC=C(C)C)CC(=O)OCC`, the inhibition in data set [1] was 0%; in data set [2] it was 14%; in [3], 100%; in data set [4], 36%.
As to `CC(C)=CCC/C(C)=C/CC/C(C)=C/Cc1cc(C(=O)O)ccc1O`, the inhibition in data set [1] is 5%; in [3], 100%.
In the case of `COC(=O)c1ccnc(NC/C=C(\C)CC/C=C(\C)CCC=C(C)C)c1`, the inhibition stood at 70% in data set [1], 100% in data set [3] and 0% in data set [4].
On to `COc1ccccc1NC/C=C(\C)CC/C=C(\C)CCC=C(C)C`, for which the inhibition in data set [1] was found to be 64%; in data set [3], 94%; in data set [4] it was 0%.
Take `CCCS(=O)(=O)Oc1ccc(C(=O)O)cc1NC/C=C(\C)CC/C=C(\C)CCC=C(C)C`: the inhibition in data set [1] amounted to 3%; in [2] it was 14%; in data set [3], 93%; in [4], 36%.
For the compound `COC(=O)c1ccc(OC)c(NC[C@H](O)[C@@H](Cc2ccccc2)NC/C=C(\C)CCC=C(C)C)c1`, the inhibition in data set [2] was found to be 3%; in data set [5], 56%; in [6], 100%. Further, the Activity entry in the data set on CHO was “Toxic”.
As to `CC(C)=CCC/C(C)=C/CC/C(C)=C/CN1C(=O)COc2ccc(C(=O)O)cc21`, the inhibition in data set [1] is 17%; in data set [2] it was 0%; in [3] it was 100%; in data set [4], 0%.
Take `CC(C)=CCC/C(C)=C/CC/C(C)=C/CC/C(C)=C/Cc1cc(C(=O)O)ccc1O`: the inhibition was 0% in data set [1]; 8% and 10% in data set [2]; 42% and 45% in [3]; 30% and 47% in [4].
For the compound `COC(=O)c1ccc(OC)c(NC/C=C(\C)CC/C=C(\C)CCC=C(C)C)c1`, the inhibition came out at 68% in data set [1], 0% in [2], 100% in data set [3] and 29% in data set [4].
For `COC(=O)c1ccc2c(c1)N(C/C=C(\C)CC/C=C(\C)CCC=C(C)C)C(=O)CO2`, the inhibition in data set [1] was found to be 22%; in [2] it was 0%; in [3] it was 59%; in data set [4], 29%.
With `CC(=O)Oc1ccc(C(=O)O)cc1C/C=C(\C)CC/C=C(\C)CC/C=C(\C)CCC=C(C)C`, the values for the inhibition in [1], in data set [2] and in data set [3] were 17%, 24% and 87%, respectively. Moreover, in the data set on CHO, the Activity entry was “Toxic”.
As for `CC(C)=CCC/C(C)=C/CC/C(C)=C/CNc1cc(C(=O)O)ccc1O`, the inhibition in data set [1] stood at 36%; in data set [3], 100%; in data set [4] it was 0%.
In data set [7], `CC(C)C[C@H](NC(=O)[C@H](CC(N)=O)NC(=O)[C@@H](NC(=O)[C@@H](N)CCC(=O)O)C(C)C)[C@@H](O)C[C@@H](C)C(=O)N[C@@H](C)C(=O)N[C@@H](CCC(=O)O)C(=O)N[C@@H](Cc1ccccc1)C(=O)O` (H-EVN[LeuΨ(S-CHOHCH2)Ala]AEF-OH) displayed an inhibition of 80%.
For `COc1ccc(C(=O)O)cc1NC/C=C(\C)CC/C=C(\C)CCC=C(C)C`, the inhibition in data set [1] was found to be 0%; in data set [2], 31%; in data set [3], 50%. Besides, in the data set with CHO, the Activity result is “Toxic”.
For `COc1ccc(C(=O)N[C@@H](Cc2ccccc2)[C@H](O)CNC2CC2)cc1NC/C=C(\C)CC/C=C(\C)CCC=C(C)C`, the inhibition was found to be 10% in data set [2], 34% in [5], 63% in data set [6] and 28% in data set [4].
For `CC(C)=CCC/C(C)=C/CC/C(C)=C/CNc1cccc(C(=O)O)c1`, the figures for the inhibition in data set [1] and in data set [3] were 25% and 89%, respectively. In addition, the Activity result in data set [8] is recorded as “Toxic”.
Take `CCCOc1ccc(C(=O)OC)cc1NC/C=C(\C)CC/C=C(\C)CCC=C(C)C`: the inhibition turned out to be 27% in data set [1], 0% in data set [2], 88% in data set [3] and 0% in [4].
